Results: patent US5023273A, “6-oxoprostaglandin E derivatives, process for their production and their pharmaceutical use” (Schering Aktiengesellschaft, priority 1987, dated 1991)

Assays:
Thrombocyte [1] = assay: Thrombocyte aggregation inhibition; format: cell-based
Procedure: (§1) The pharmacological comparison tests, which were conducted with the compounds from examples 1 and 4 in comparison with 6-oxo-PGE1, are summarized in the following table.

[2] = test system: Stomach (rats, trauma with ethanol); assay: Cytoprotection, stomach (rats, trauma with ethanol); format: in vivo; settings: 10 micrograms/kg
Procedure: as §1

Thrombocyte [3] = assay: Thrombocyte shape change; format: cell-based
Procedure: as §1

Structure (SMILES)	IC50 (Thrombocyte [1]) [nM]	Cytoprotection, stomach: inhibition [2] [%]	IC50 (Thrombocyte [3]) [nM]
CCCCC[C@H](O)/C=C/[C@H]1[C@H](O)CC(=O)[C@@H]1CC(=O)CCCCC(=O)O [Example 6oxoPGE1, reference compound]	7	52	
CCC#CC[C@H](C)[C@H](O)C#C[C@H]1[C@H](O)CC(=O)[C@@H]1CC(=O)CCCCC(=O)O [Example 4, (11R,15S,16S)-6,9-di-oxo-11,15-dihydroxy-16,20-dimethyl-13,14,18,18,19,19-hexadehydroxy-13-prostenoic acid]	0.09		1
CC#CCC(C)[C@H](O)/C=C/[C@H]1[C@H](O)CC(=O)[C@@H]1CC(=O)CCCCC(=O)O (mixture of isomers) [Example 1, (13E)-(11R,15S,16RS)-6,9-Di-oxo-11,15-dihydroxy-16-methyl-18,18,19,19-tetradehydro-13-prostenoic acid]	1.7		10
